# Data from article PMC13195669, “GPR3 Ligands Discovered through Combined Virtual and Conformational Biosensor-Based Screening” (Journal of the American Chemical Society, 2026).
# Tests used:
# Assay type in all cases: cell-based
# Conditions in all cases: preincubation with 100 μM or 10 μM; 10 µM forskolin
# LPA receptor 1 (LPAR1) = target: T1, LPA receptor 1 (LPAR1) (Homo sapiens, UniProt Q92633); assay: cAMP GloSensor 22F, agonist-stimulated LPAR1
# T1 construct: expressed in transfected cells; host or cells: HEK293A, transient
# T1 sequence (Q92633 whole entry, species assumed): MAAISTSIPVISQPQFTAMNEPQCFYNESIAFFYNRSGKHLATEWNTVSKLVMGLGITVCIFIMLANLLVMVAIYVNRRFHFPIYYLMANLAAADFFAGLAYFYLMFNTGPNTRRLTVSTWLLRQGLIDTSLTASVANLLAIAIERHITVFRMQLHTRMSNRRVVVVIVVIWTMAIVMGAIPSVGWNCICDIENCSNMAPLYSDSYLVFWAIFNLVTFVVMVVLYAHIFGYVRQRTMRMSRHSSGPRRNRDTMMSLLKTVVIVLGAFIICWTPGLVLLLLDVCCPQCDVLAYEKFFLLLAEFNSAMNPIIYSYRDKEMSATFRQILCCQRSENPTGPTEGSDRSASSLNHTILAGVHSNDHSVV
# Experimental: (§1) Next, we used the classical cAMP GloSensor technology to assess the target selectivity profile of 33. […] In addition, we tested the effects of 33 on cAMP changes mediated by agonist-stimulated GPCRs phylogenetically close to GPR3 and coupling to Gs or Gi/o proteins.
# (§2) BRET-based GPCR conformational sensor experiments
# (§3) Cells expressing the conformational GPCR biosensors were grown for 24 h (stable cells) or 48 h (transiently transfected cells) in white 96-well plates and washed with 100 µl of HBSS. After washing, cells were incubated for 2 minutes with a 1/1000 solution of the furimazine stock solution (Promega; cat. no. N1662). Three baseline BRET reads were recorded and averaged prior to the addition of serial dilutions of ligands or veh icle control and subsequent BRET reads. […] BRE T donor emission was quantified with a 470/80 nm monochromator. […] Experiments were carried out using a CLARIOstar plate reader.
# (§4) FRET- and BRET-based measurements of cAMP levels and Gs dissociation/reassociation Transfected cells grown in black 96-well plates were washed twice with 100 µl of HBSS 48 h after transfection and incubated with HBSS. […] Three baseline FRET/BRET reads were recorded and averaged prior to the addition of serial dilutions of ligands or vehicle control and sub-sequent FRET/BRET reads. […] FRET donor emission was quantified with a 480/10 nm filter. […]
# (§5) Luminescence measurement using the cAMP GloSensor™ 22F […]
# S1P receptor 1 (S1PR1) = target: T2, S1P receptor 1 (S1PR1) (Homo sapiens, UniProt P21453); assay: cAMP GloSensor 22F, agonist-stimulated S1PR1
# T2 construct: expressed in transfected cells; host or cells: HEK293A, transient
# T2 sequence (P21453 whole entry, species assumed): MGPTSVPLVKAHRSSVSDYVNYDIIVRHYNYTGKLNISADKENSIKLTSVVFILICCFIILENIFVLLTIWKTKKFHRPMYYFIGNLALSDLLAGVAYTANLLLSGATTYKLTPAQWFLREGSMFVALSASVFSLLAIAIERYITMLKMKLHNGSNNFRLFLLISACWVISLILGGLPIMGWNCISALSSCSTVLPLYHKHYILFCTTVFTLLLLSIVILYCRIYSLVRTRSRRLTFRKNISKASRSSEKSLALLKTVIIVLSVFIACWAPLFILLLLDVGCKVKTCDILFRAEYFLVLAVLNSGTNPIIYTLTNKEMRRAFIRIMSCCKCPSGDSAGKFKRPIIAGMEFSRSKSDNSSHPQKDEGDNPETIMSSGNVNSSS
# Experimental: as §1, §2, §3, §4, §5
# [1] = target: T3, cannabinoid receptor 1 (CB1R) (Homo sapiens, UniProt P21554); assay: cAMP GloSensor 22F, agonist-stimulated CB1R
# T3 construct: expressed in transfected cells; host or cells: HEK293A, transient
# T3 sequence (P21554 whole entry, species assumed): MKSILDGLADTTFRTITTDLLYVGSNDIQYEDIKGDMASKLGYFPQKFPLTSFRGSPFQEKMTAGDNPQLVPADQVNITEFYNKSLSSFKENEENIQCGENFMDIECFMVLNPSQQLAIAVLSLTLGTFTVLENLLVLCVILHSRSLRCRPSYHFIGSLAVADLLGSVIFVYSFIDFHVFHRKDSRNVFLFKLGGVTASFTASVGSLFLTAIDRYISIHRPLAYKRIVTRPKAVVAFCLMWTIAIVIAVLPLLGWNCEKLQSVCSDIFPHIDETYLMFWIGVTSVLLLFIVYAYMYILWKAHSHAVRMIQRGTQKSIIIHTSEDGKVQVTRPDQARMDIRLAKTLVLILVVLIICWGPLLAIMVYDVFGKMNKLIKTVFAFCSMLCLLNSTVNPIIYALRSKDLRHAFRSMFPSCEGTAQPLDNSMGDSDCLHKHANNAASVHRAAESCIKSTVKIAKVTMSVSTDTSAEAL
# Experimental: as §1, §2, §3, §4, §5
smiles,measurement,setting,value
N=c1n(Cc2ccccc2)c2ccccc2n1CC1CC1 [compound 33],effect on agonist-induced cAMP change mediated by LPAR1,LPA receptor 1 (LPAR1),neither 100 μM nor 10 μM 33 significantly altered
same,effect on agonist-induced cAMP change mediated by S1PR1,S1P receptor 1 (S1PR1),neither 100 μM nor 10 μM 33 significantly altered
same,effect on agonist-induced cAMP change mediated by CB1R,[1],neither 100 μM nor 10 μM 33 significantly altered
